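GI50 = concentration required for 50% inhibition of growth. TGI denotes the concentration required for complete inhibition of growth.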
Columns and labels:
Assay in all cases: NCI tumour cell line growth inhibition, 384-well format
SW-620 colon = system: SW-620 colon
HOP-62 NSCLC = system: HOP-62 NSCLC
ACHN renal = system: ACHN renal
SF-539 CNS = system: SF-539 CNS
MOLT-4 leukemia = system: MOLT-4 leukemia
SF-268 CNS = system: SF-268 CNS
IGROV1 ovarian = system: IGROV1 ovarian
K-562 leukemia = system: K-562 leukemia
SK-MEL-5 melanoma = system: SK-MEL-5 melanoma
OVCAR-3 ovarian = system: OVCAR-3 ovarian
SF-295 CNS = system: SF-295 CNS
A549 NSCLC = system: A549 NSCLC
NCI-H226 lung = system: NCI-H226 lung
NCI-H23 lung = system: NCI-H23 lung
BT-549 breast = system: BT-549 breast
U251 glioblastoma = system: U251 glioblastoma
CAKI-1 renal = system: CAKI-1 renal
LOX IMVI melanoma = system: LOX IMVI melanoma
SNB-19 CNS = system: SNB-19 CNS
NCI-H460 NSCLC = system: NCI-H460 NSCLC
HL-60(TB) leukemia = system: HL-60(TB) leukemia
T-47D breast = system: T-47D breast
MDA-MB-468 breast = system: MDA-MB-468 breast
MALME-3M melanoma = system: MALME-3M melanoma
PC-3 prostate = system: PC-3 prostate
HOP-92 NSCLC = system: HOP-92 NSCLC
NCI-H522 lung = system: NCI-H522 lung
DU-145 prostate = system: DU-145 prostate
RXF 393 renal = system: RXF 393 renal
SNB-75 CNS = system: SNB-75 CNS
UACC-257 melanoma = system: UACC-257 melanoma
UO-31 renal = system: UO-31 renal
M14 melanoma = system: M14 melanoma
SR leukemia = system: SR leukemia
786-0 renal = system: 786-0 renal
SK-OV-3 ovarian = system: SK-OV-3 ovarian
RPMI-8226 leukemia = system: RPMI-8226 leukemia
SN12C renal = system: SN12C renal
A498 renal = system: A498 renal
HT29 colon = system: HT29 colon
KM12 colon = system: KM12 colon
CCRF-CEM leukemia = system: CCRF-CEM leukemia
HCT-15 colon = system: HCT-15 colon
UACC-62 melanoma = system: UACC-62 melanoma
NCI-H322M lung = system: NCI-H322M lung
TK-10 renal = system: TK-10 renal
NCI/ADR-RES ovarian = system: NCI/ADR-RES ovarian
HS 578T breast = system: HS 578T breast
EKVX NSCLC = system: EKVX NSCLC
OVCAR-4 ovarian = system: OVCAR-4 ovarian
OVCAR-8 ovarian = system: OVCAR-8 ovarian
HCC-2998 colon = system: HCC-2998 colon
COLO 205 colon = system: COLO 205 colon
MDA-MB-435 melanoma = system: MDA-MB-435 melanoma
MCF7 breast = system: MCF7 breast
MDA-MB-231 breast = system: MDA-MB-231 breast
HCT-116 colon = system: HCT-116 colon
SK-MEL-28 melanoma = system: SK-MEL-28 melanoma

COc1cc2c(Nc3ccc(Cl)c(Cl)c3F)ncnc2cc1OCC1C[C@@H]2CN(C)C[C@@H]2C1 (stereo partly specified)
GI50 (SW-620 colon): 1560 nM | TGI (SW-620 colon): 2900 nM | GI50 (HOP-62 NSCLC): 1310 nM | TGI (HOP-62 NSCLC): 2590 nM | GI50 (ACHN renal): 69.1 nM | TGI (ACHN renal): 1280 nM | GI50 (SF-539 CNS): 1140 nM | TGI (SF-539 CNS): 2360 nM | GI50 (MOLT-4 leukemia): 1100 nM | TGI (MOLT-4 leukemia): 2300 nM | GI50 (SF-268 CNS): 1100 nM | TGI (SF-268 CNS): 2300 nM | GI50 (IGROV1 ovarian): 33.2 nM | TGI (IGROV1 ovarian): 199 nM | GI50 (K-562 leukemia): 51 nM | TGI (K-562 leukemia): 181 nM | GI50 (SK-MEL-5 melanoma): 1220 nM | TGI (SK-MEL-5 melanoma): 2460 nM | GI50 (OVCAR-3 ovarian): 93.8 nM | TGI (OVCAR-3 ovarian): 1520 nM | GI50 (SF-295 CNS): 1680 nM | TGI (SF-295 CNS): 3060 nM | GI50 (A549 NSCLC): 974 nM | TGI (A549 NSCLC): 2160 nM | GI50 (NCI-H226 lung): 1260 nM | TGI (NCI-H226 lung): 2700 nM | GI50 (NCI-H23 lung): 1020 nM | TGI (NCI-H23 lung): 2230 nM | GI50 (BT-549 breast): 1300 nM | TGI (BT-549 breast): 2580 nM | GI50 (U251 glioblastoma): 1600 nM | TGI (U251 glioblastoma): 2950 nM | GI50 (CAKI-1 renal): 123 nM | TGI (CAKI-1 renal): 1600 nM | GI50 (LOX IMVI melanoma): 1150 nM | TGI (LOX IMVI melanoma): 2380 nM | GI50 (SNB-19 CNS): 1410 nM | TGI (SNB-19 CNS): 2740 nM | GI50 (NCI-H460 NSCLC): 1330 nM | TGI (NCI-H460 NSCLC): 2620 nM | GI50 (HL-60(TB) leukemia): 1670 nM | TGI (HL-60(TB) leukemia): 3030 nM | GI50 (T-47D breast): 1020 nM | TGI (T-47D breast): 2230 nM | GI50 (MDA-MB-468 breast): 30.7 nM | TGI (MDA-MB-468 breast): 162 nM | GI50 (MALME-3M melanoma): 1160 nM | TGI (MALME-3M melanoma): 2380 nM | GI50 (PC-3 prostate): 1120 nM | TGI (PC-3 prostate): 2500 nM | GI50 (HOP-92 NSCLC): 1150 nM | TGI (HOP-92 NSCLC): 2370 nM | GI50 (NCI-H522 lung): 80.1 nM | TGI (NCI-H522 lung): 1440 nM | GI50 (DU-145 prostate): 557 nM | TGI (DU-145 prostate): 2180 nM | GI50 (RXF 393 renal): 512 nM | TGI (RXF 393 renal): 1860 nM | GI50 (SNB-75 CNS): 1310 nM | TGI (SNB-75 CNS): 2590 nM | GI50 (UACC-257 melanoma): 208 nM | TGI (UACC-257 melanoma): 409 nM | GI50 (UO-31 renal): 252 nM | TGI (UO-31 renal): 1650 nM | GI50 (M14 melanoma): 1650 nM | TGI (M14 melanoma): 3020 nM | GI50 (SR leukemia): 415 nM | TGI (SR leukemia): 801 nM | GI50 ([…]-0 renal): 710 nM | TGI (786-0 renal): 2030 nM | GI50 (SK-OV-3 ovarian): 189 nM | TGI (SK-OV-3 ovarian): 1430 nM | GI50 (RPMI-8226 leukemia): 1390 nM | TGI (RPMI-8226 leukemia): 2680 nM | GI50 (SN12C renal): 161 nM | TGI (SN12C renal): 1400 nM | GI50 (A498 renal): 940 nM | TGI (A498 renal): 2150 nM | GI50 (HT29 colon): 598 nM | TGI (HT29 colon): 1920 nM | GI50 (KM12 colon): 1630 nM | TGI (KM12 colon): 3010 nM | GI50 (CCRF-CEM leukemia): 1520 nM | TGI (CCRF-CEM leukemia): 2850 nM | GI50 (HCT-15 colon): 890 nM | TGI (HCT-15 colon): 2130 nM | GI50 (UACC-62 melanoma): 1120 nM | TGI (UACC-62 melanoma): 2330 nM | GI50 (NCI-H322M lung): 31.7 nM | TGI (NCI-H322M lung): 366 nM | GI50 (TK-10 renal): 156 nM | TGI (TK-10 renal): 1230 nM | GI50 (NCI/ADR-RES ovarian): 1400 nM | TGI (NCI/ADR-RES ovarian): 2800 nM | GI50 (HS 578T breast): 1080 nM | TGI (HS 578T breast): 2280 nM | GI50 (EKVX NSCLC): 47.2 nM | TGI (EKVX NSCLC): 1130 nM | GI50 (OVCAR-4 ovarian): 1360 nM | TGI (OVCAR-4 ovarian): 3150 nM | GI50 (OVCAR-8 ovarian): 1110 nM | TGI (OVCAR-8 ovarian): 2320 nM | GI50 (HCC-2998 colon): 1480 nM | TGI (HCC-2998 colon): 2810 nM | GI50 (COLO 205 colon): 1810 nM | TGI (COLO 205 colon): 3280 nM | GI50 (MDA-MB-435 melanoma): 1690 nM | TGI (MDA-MB-435 melanoma): 3070 nM | GI50 (MCF7 breast): 1090 nM | TGI (MCF7 breast): 2300 nM | GI50 (MDA-MB-231 breast): 1180 nM | TGI (MDA-MB-231 breast): 2470 nM | GI50 (HCT-116 colon): 1390 nM | TGI (HCT-116 colon): 2720 nM | GI50 (SK-MEL-28 melanoma): 1450 nM | TGI (SK-MEL-28 melanoma): 2770 nM
